In publication PMC11879792 (Frontiers in Pharmacology, 2025) one finds Tmax and half-life data, which are given here for two molecules.

Data set [1] in a line: Single-dose, two-cycle crossover PK/bioequivalence trial of S-1 capsules, fasting. Type of data set: in vivo, Chinese cancer patients. As to conditions: human, plasma, oral, 100 mg; fasting conditions. The text has this:
This study, a multicenter, randomized, open-label, single-dose, two-cycle crossover investigation, was distinctly divided into fasting and fed trials. Each subject received either the test or reference formulation in a separate cycle. Each cycle consisted of a 4-day inpatient phase, followed by a 7-day washout period between cycles to ensure that any residual effects from the previous formulation had fully dissipated before the initiation of the next cycle. To avoid the residual effects of fasting or feeding that could influence the results, the fasting and fed trials each enrolled 60 subjects. Subjects were randomly allocated to one of the two treatment sequences, namely, test-reference or reference-test, in a 1:1 ratio. All eligible subjects were admitted to the clinical ward 1 day prior to drug administration, adhering to a minimum fasting period of 10 h before drug intake. In the fasting trial, subjects were required to fast. Subsequently, they ingested a single dose comprising two capsules (50 mg each) of either the test or reference formulation, accompanied by 240 mL of warm water. […]
OXO was determined in blood, which was performed under the following conditions: the aqueous solution containing 5 mM ammonium acetate (mobile phase A) and acetonitrile (mobile phase B). […]

On the set-up of data set [2]: method as in Diasio and Harris, 1989. To be noted: parenteral administration of 5-FU; approximately; ref Diasio and Harris, 1989; cited from earlier work.

For orientation: Tmax means the time from dosing to the highest level. In the case of `Oc1cc(O)c(Cl)cn1` [CDHP, gimeracil], in data set [1], the Tmax was roughly 1 h.
In general, half-life refers to how long it takes for the measured level to halve. Turning to `O=c1[nH]cc(F)c(=O)[nH]1` [5-FU, 5-fluorouracil], the half-life in data set [2] is 8 to 20 min.
